Laboratory results from ChEMBL document CHEMBL2040799, “Exploring the Requirements for the Hydrophobic Scaffold and Polar Amine in inhibitors of M2 from Influenza A Virus” (ACS Med Chem Lett, 2011).

Experiments:
Oocyte = assay: Inhibition of Influenza A Virus M2 proton channel expressed in Xenopus laevis oocytes at 100 uM after 2 mins by two-electrode […] assay; type: cell-based
[1] = Inhibition of Influenza A Virus M2 proton channel expressed in Xenopus laevis oocytes after 2 mins by two-electrode […] assay; type: cell-based; conditions: Oocyte

NC1C2CC3CC(C2)CC1C3 (stereo not given)
inhibition (Oocyte): 92%

N=C(NO)C12CC3CC(CC(C3)C1)C2
inhibition (Oocyte): 72%

CC12CC3(O)CC1(C)CC3(O)C2
inhibition (Oocyte): 40%

NC(=O)C12CC3CC(CC(C3)C1)C2
inhibition (Oocyte): 75%

NC12CCC3CC(CC(C3)C1)C2
inhibition (Oocyte): 92%
IC50 [1]: 29 µM

C1CCC2(CC1)CCNCC2
inhibition (Oocyte): 95%
IC50 [1]: 1 µM

NNC1CCC2(CCCCC2)CC1
inhibition (Oocyte): 79%
IC50 [1]: 31 µM

N=C(N)C12CC3CC(CC(C3)C1)C2
inhibition (Oocyte): 95%
IC50 [1]: 4 µM

NC1C2C3CC4C2C(O)C2C1C3C42 (stereo not given)
inhibition (Oocyte): 86%
IC50 [1]: 24 µM

C1CC2CCC1CNC2
inhibition (Oocyte): 75%

NC1Cc2ccccc2C1
inhibition (Oocyte): 6%

CC1(C)C(N)C1(C)C
inhibition (Oocyte): 28%

O=C1C2CC3CC(C2)CC1C3
inhibition (Oocyte): 69%
IC50 [1]: 29 µM

NC(CO)C12CC3CC(CC(C3)C1)C2 (stereo not given)
inhibition (Oocyte): 90%
IC50 [1]: 16 µM

C1NC2CC3CC1CC(C3)C2
inhibition (Oocyte): 84%

NC12CC3CC(C1)CC(O)(C3)C2
inhibition (Oocyte): 5%

NC1CC2CC1C1CCCC21 (stereo not given)
inhibition (Oocyte): 94%
IC50 [1]: 9 µM

NN1CCC2(CCCCC2)CC1
inhibition (Oocyte): 96%
IC50 [1]: 7 µM

OC1CCC(C2CC3CCC2C3)CC1O (stereo not given)
inhibition (Oocyte): 80%

NC12CC3CC(C1)CC(CO)(C3)O2
inhibition (Oocyte): 13%

C1CC2CC1C1CNCC21 (stereo not given)
inhibition (Oocyte): 74%

OC12CC3CC(CC(C3)C1)C2
inhibition (Oocyte): 85%
IC50 [1]: 20 µM

CC(C)(C)CC(C)(C)N
inhibition (Oocyte): 87%
IC50 [1]: 21 µM

N=C(N)NC12CC3CC(CC(C3)C1)C2
inhibition (Oocyte): 97%
IC50 [1]: 15 µM

N=C(N)NCC12CC3CCC(CC(C3)C1)C2
inhibition (Oocyte): 90%

C1CC2CC1C1CNC21 (stereo not given)
inhibition (Oocyte): 45%

NOC12CC3CC(CC(C3)C1)C2
inhibition (Oocyte): 87%

OC1C2C3CC4C2C(O)C2C1C3C42 (stereo not given)
inhibition (Oocyte): 76%

O=S(=O)(O)C12CC3CC(CC(C3)C1)C2
inhibition (Oocyte): 3%

CC(C)(C)c1ccc(CN)cc1
inhibition (Oocyte): 40%

N=C(N)NC(=N)NC12CC3CC(CC(C3)C1)C2
inhibition (Oocyte): 70%

NC1CCC2(CCCCC2)CC1
inhibition (Oocyte): 89%

OC1C2C3CC4C1C1C2CC3C41 (stereo not given)
inhibition (Oocyte): 57%

NC1C2C3CC4C1C1C2CC3C41 (stereo not given)
inhibition (Oocyte): 96%
IC50 [1]: 8 µM

NC12CC3CC(CC(C3)C1)C2
inhibition (Oocyte): 91%

CC1(O)C2CC3CC(C2)CC1C3 (stereo not given)
inhibition (Oocyte): 86%
IC50 [1]: 14 µM

NC12CC3CCC(CC(C3)C1)C2
inhibition (Oocyte): 81%
IC50 [1]: 24 µM

NN1C(=O)CC2(CCCCC2)CC1=O
inhibition (Oocyte): 29%

OC1CC2C3CCC(C3)C2C1O (stereo not given)
inhibition (Oocyte): 50%

O=C1CC2(CCCCC2)CC(=O)N1
inhibition (Oocyte): 35%
